The values that follow come from patent publication US20080176923A1, “Proline Derivatives Used as Pharmaceutical Active Ingredients for the Treatment of Tumors” (priority 2003, published 2008).

A word on the IC50: it is the concentration at which inhibition is half-maximal. What is called melting point is the temperature, or range, at which the solid turns liquid.

In brackets after ≈: the same amount, converted by molar mass. Read-outs that look alike come from different tables or passages of the source.

In series [1] the test system is MIA-PaCa2 pancreas tumor cell line. As to the kind of experiment: tumor cell proliferation test (EZ4U tetrazolium), MIA-PaCa2. In kind it is cell-based. The following applies: Homo sapiens; for IC50: MIA PaCa-2. The method, then:
(§1) The compounds of the invention were tested using the pancreas tumor cell lines MIYPaCa2 and BxPC3, the breast cancer cell lines MDA-MB-435 and BT20, as well as the colon cancer cell lines Colo205 and HT29. The cells were placed in culture medium (RPMI-1640 with 10% fetal calf serum and 4 mM glutamine) in 96-well microtiter plates to make 10,000 cells per well. The inventive components to be tested were diluted in microtiter plates according to the well-known procedure and incubated for 4 days under cell culture conditions (37° C., 5% CO2).
(§2) Following incubation, the proliferation was tested using a tetrazolium-based EZ4U kit from Biomedica (Vienna, Austria). The optical density (OD) of each well was determined by means of an ELISA Reader, and the control medium obtained was set to 100% (OD490 nm=0.5 to 1.5). The values in Table 1 are given in %, showing the inhibition of cellular proliferation, the concentration being 400 μg/ml (higher value) and 200 μg/ml (lower value).
(§3) Furthermore, (R)-(+)-α,α-diphenyl-2-pyrrolidinemethanol and (S)-(−)-α,α-diphenyl-2-pyrrolidinemethanol were tested. […] The results are given as IC50 (μg/ml).

Series [2] deals with Colo205 colon cancer cell line. As to the kind of experiment: tumor cell proliferation test (EZ4U tetrazolium), Colo205. In kind it is cell-based. The following applies: Homo sapiens. The method, then:
as §1, §2
(§4) In further tests, substances were dissolved in water, and their effect on the colon adenocarcinoma cell line Colo205 and pancreas adenocarcinoma cell line BxPC3 as targets was tested. The results obtained, in IC50 concentrations in μg/ml, are illustrated in Table 2.
(§5) A proliferation test—as described above—with an initial dilution of 400 μg/ml was carried out, either alone or in combination with 400, 200 or 100 μg of CHP. The cell lines used are illustrated in Table 3. […] Frequently, the proliferation is increased, or the inhibition achieved with specific substances is lower when using combined agents. The effect of CHP alone is shown on the left in the table, below each specified cell line, for the highest concentration of CHP (400 μg/ml).
as §3

The subject of series [3] is BxPC3 pancreas tumor cell line. The series can be described thus: tumor cell proliferation test (EZ4U tetrazolium), BxPC3. In kind it is cell-based. The note with it: Homo sapiens. The method, then: as §1, §2, §4, §3
Series [4] relates to MDA-MB435 breast cancer cell line. As to the kind of experiment: tumor cell proliferation test (EZ4U tetrazolium), MDA-MB435. In kind it is cell-based. The note with it: Homo sapiens, MDA-MB-435, 96 h, 4 days, read-out: inhibition of cellular proliferation. The method, then: as §1, §2
The subject of series [5] is BT20 breast cancer cell line. The series can be described thus: tumor cell proliferation test (EZ4U tetrazolium), BT20. In kind it is cell-based. The note with it: Homo sapiens, BT-20, 96 h, 4 days, read-out: inhibition of cellular proliferation. The method, then: as §1, §2
Series [6] has as its system HT29 colon cancer cell line. The series can be described thus: tumor cell proliferation test (EZ4U tetrazolium), HT29. In kind it is cell-based. The note with it: Homo sapiens, HT-29, 96 h, 4 days, read-out: inhibition of cellular proliferation. The method, then: as §1, §2
Series [7] relates to T47D breast cancer cell line. As to the kind of experiment: tumor cell proliferation test, T47D. In kind it is cell-based. The note with it: Homo sapiens. The method, then:
as §1, §2, §5, §3

In series [8] the test system is SW620 colon cancer cell line. As to the kind of experiment: tumor cell proliferation test, SW620. The note with it: Homo sapiens, SW-620, CHP 400 μg/ml alone, read-out: effect of CHP alone (% inhibition of proliferation, minus sign). In kind it is cell-based. The method, then:
as §1, §2, §5

Series [9] has as its system all 6 cell lines (MIA-PaCa2, Colo205, BxPC3, MDA-MB435, BT20, HT29). As to the kind of experiment: tumor cell proliferation test, mean value for all 6 cell lines. The note with it: read-out: inhibition; mean value±SEM for all 6 cell lines. In kind it is cell-based. The method, then:
as §1, §2

A short description of series [10]: repeated oral administration to rats over 28 days, LC/MS of serum and urine. In kind it is in vivo. The note with it: repeated oral administration over 28 days. The method, then: cis-4-Hydroxy-L-proline was repeatedly administered orally to rats over a period of 28 days. cis-4-Hydroxy-L-proline was analyzed in serum and urine samples using the LC/MS technique.

A further series deals with Pana -1 pancreas cancer. As to the kind of experiment: tumor cell proliferation test, Pana -1. In kind it is cell-based. The method, then:
as §1, §2, §3

Setting [11] is: MIA PaCa-2, 96 h, read-out: inhibition of cellular proliferation.
Setting [12] is: COLO 205, 96 h, read-out: inhibition of cellular proliferation.
[13] abbreviates: BXPC-3, 96 h, read-out: inhibition of cellular proliferation.

As for `O=C(O)[C@@H]1C[C@H](O)CN1` [CHP, cis-4-hydroxy-L-proline, reference compound], the inhibition at 200 µg/mL in series [1] (setting [11]) stood at 34.5%; in series [2] (setting [12]), 60%; in series [3] (setting [13]) it was 27.8%; in series [4] (MDA-MB435, 200 μg/ml), 19.9%; in series [5] (BT20, 200 μg/ml), 6.5%; in series [6] (HT29, 200 μg/ml), 1.7%. Further, the inhibition at 400 µg/mL in series [1] (setting [11]) amounted to 51.3%; in series [2] (setting [12]), 78.2%; in series [2] (COLO 205, read-out: effect of CHP alone (% inhibition of proliferation, minus sign)), 46%; in series [3] (setting [13]), 44.5%; in [4] (MDA-MB435, 400 μg/ml), 39.2%; in series [5] (BT20, 400 μg/ml), 10.6%. The inhibition at 400 µg/mL came to 15.7% in [6] (HT29, 400 μg/ml); 17.4% in series [7] (read-out: effect of CHP alone (% inhibition of proliferation, minus sign)); 14% in series [8]; 40 ± 10.1% in series [9]. Besides, the 50% inhibitory concentration (IC50) in series [2] (COLO 205, read-out: IC50 Colo205) is 90 µg/mL; in series [3] (BXPC-3, read-out: IC50 BxPC3), 400 µg/mL (≈ 3050 µM). In addition, the “level of cis-4-hydroxy-L-proline in serum or urine” value in series [10] is reported as “rapidly dropped”. Further, in [10] (serum and urine), the “isomers and metabolites in the investigated samples (biotransformation)” value was “detection of isomers and metabolites”.
Take `OC(c1ccccc1)(c1ccccc1)[C@H]1CCCN1` [Substance 231.01, (R)-(+)-α,α-diphenyl-2-pyrrolidinemethanol]: the IC50 in series [1] came to 50 µg/mL (≈ 197 µM); in series [2] (COLO 205), 45 µg/mL; in series [3] (BXPC-3), 60 µg/mL (≈ 237 µM); in series [7], 130 µg/mL; in the series on Pana -1 pancreas cancer, 80 µg/mL (≈ 316 µM).
For `OC(c1ccccc1)(c1ccccc1)[C@@H]1CCCN1` [Substance 231.02, (S)-(−)-α,α-diphenyl-2-pyrrolidinemethanol], the IC50 in [1] came to 50 µg/mL (≈ 197 µM); in [2] (COLO 205), 45 µg/mL; in series [3] (BXPC-3) it was 50 µg/mL (≈ 197 µM); in series [7], 190 µg/mL; with Pana -1 pancreas cancer, 55 µg/mL (≈ 217 µM).
For `CC(C)COC(=O)C1CC(O)CN1` [Substance A2, cis-hydroxy-L-proline isobutyl ester], the melting point stood at 139 °C. Besides, the IC50 in series [2] (COLO 205, substances dissolved in water, read-out: IC50 Colo205) stood at 18 µg/mL. In series [3] (BXPC-3, substances dissolved in water, read-out: IC50 BxPC3), the 50% inhibitory concentration (IC50) is 15 µg/mL (≈ 80.1 µM).
